Experimental data as given in the supplement of paper PMC11061612.

Experiments:
[1] = tested on: Becker (Low Grade Glioma); experiment: Bliss excess, mean over the matrix (fraction); higher = more synergy
Method in brief: (§1)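 Cell lines grown in DMEM/F12 or RPMI with 10% FBS were plated in 1536-well plates and held 24 hours at 37°C, 5% CO2 before 72 hours of exposure to two-drug dose matrices, with DMSO typically at 0.2%. CellTiter-Glo 2.0 luminescence gave viability, which was converted to inhibition. Vehicle wells were set to 0 and blank wells to 1. Combination Emax is the second-highest inhibition in the matrix, and Bliss excess is the observed combination effect minus the expected EA + EB − EA·EB, where EA and EB are the single-agent effects.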

ES-2 (Ovarian Carcinoma) [2] = experiment: as above
Method in brief: as §1

[3] = tested on: AN3-CA (Endometrial Carcinoma); experiment: combination Emax (second highest fraction inhibited in the dose matrix, 72 h); higher = more inhibition; extreme values may be limits of the assay
Method in brief: as §1

[4] = tested on: AsPC-1 (Pancreatic Carcinoma); experiment: as above
Method in brief: as §1

CHL-1 (Melanoma) = experiment: as above
Method in brief: as §1

[5] = tested on: EB-3 (Burkitt's Lymphoma); experiment: as above
Method in brief: as §1

ES-2 (Ovarian Carcinoma) [6] = experiment: as above
Method in brief: as §1

[7] = tested on: HSC-3 (Oral Cavity Carcinoma); experiment: as above
Method in brief: as §1

[8] = tested on: JHH-1 (Hepatocellular Carcinoma); experiment: as above
Method in brief: as §1

[9] = tested on: LOUCY (T-Lymphoblastic Leukemia); experiment: as above
Method in brief: as §1

[10] = tested on: NCI-H1755 (Lung Adenocarcinoma); experiment: as above
Method in brief: as §1

[11] = tested on: NCI-H196 (Small Cell Lung Carcinoma); experiment: as above
Method in brief: as §1

[12] = tested on: OCI-AML5 (Acute Myeloid Leukemia); experiment: as above
Method in brief: as §1

[13] = tested on: OV-90 (Ovarian Carcinoma); experiment: as above
Method in brief: as §1

[14] = tested on: OVTOKO (Ovarian Carcinoma); experiment: as above
Method in brief: as §1

[15] = tested on: PC-14 (Lung Adenocarcinoma); experiment: as above
Method in brief: as §1

[16] = tested on: RMG-I (Ovarian Carcinoma); experiment: as above
Method in brief: as §1

[17] = tested on: RPMI-8866 (Chronic Myelogenous Leukemia); experiment: as above
Method in brief: as §1

[18] = tested on: SK-MM-2 (Plasma Cell Myeloma); experiment: as above
Method in brief: as §1

[19] = tested on: SW684 (Other Solid Carcinomas); experiment: as above
Method in brief: as §1
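Wherever Bliss excess, mean over the matrix is given: after 72 h of two-drug dosing.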

Row | SMILES | Bliss excess [1] | Bliss excess (ES-2 (Ovarian Carcinoma) [2]) | combination Emax [3] | combination Emax [4] | combination Emax (CHL-1 (Melanoma)) | combination Emax [5] | combination Emax (ES-2 (Ovarian Carcinoma) [6]) | combination Emax [7] | combination Emax [8] | combination Emax [9] | combination Emax [10] | combination Emax [11] | combination Emax [12] | combination Emax [13] | combination Emax [14] | combination Emax [15] | combination Emax [16] | combination Emax [17] | combination Emax [18] | combination Emax [19]
1 | Cc1c2c(nn1C)CSCc1cc(n(C)n1)CSc1cc(c3ccccc3c1)OCCCc1c(C(=O)O)n(C)c3c-2c(Cl)ccc13 [AZD5991] + Cc1cc2ncnn2cc1Nc1ncc2c(n1)n(C1CCOCC1)c(=O)n2C [AZD7648] (first compound max 1 µM, 7x7, partner max 10 µM) | 0.0005 | -0.0545 | 0.654 | 0.246 | 0.346 | 0.456 | 0.313 | 0.52 | 0.35 | 0.82 | 0.418 | 0.219 | 1 | 0.257 | 0.41 | 0.27 | 0.344 | 0.533 | 0.375 | 0.298
2 | C[C@@H](c1ccc2nccn2c1)n1nnc2ncc(-c3cnn(C)c3)nc21 [Savolitinib] + Cc1c2c(nn1C)CSCc1cc(n(C)n1)CSc1cc(c3ccccc3c1)OCCCc1c(C(=O)O)n(C)c3c-2c(Cl)ccc13 [AZD5991] (first compound max 1 µM, 7x7, partner max 1 µM) | 0.0103 | -0.0299 | 0.308 | 0.184 | 0.291 | 0.361 | 0.176 | 0.206 | 0.208 | 0.46 | 0.173 | 0.173 | 0.137 | 0.185 | 0.199 | 0.148 | 0.216 | 0.108 | 0.131 | 0.161
3 | NC1(C(=O)N[C@@H](CCO)c2ccc(Cl)cc2)CCN(c2ncnc3[nH]ccc23)CC1 [Capivasertib] + CC(C)n1c(=O)n(C)c2cnc3cc(F)c(-c4ccc(OCCCN5CCCCC5)nc4)cc3c21 [AZD1390] (first compound max 10 µM, 7x7, partner max 0.3 µM) | -0.0136 | -0.0648 | 0.756 | 0.208 | 0.126 | 0.522 | 0.257 | 0.608 | 0.169 | 0.623 | 0.443 | 0.267 | 0.22 | 0.284 | 0.516 | 0.392 | 0.292 | 0.402 | 0.243 | 0.536
4 | CN(CCO)CC[C@H](CSc1ccccc1)Nc1ccc(S(=O)(=O)NC(=O)c2ccc(N3CCC([C@@H](O)c4ccccc4-c4ccc(Cl)cc4)CC3)cc2)cc1S(=O)(=O)C(F)(F)F [AZD4320] + C=CCn1c(=O)c2cnc(Nc3ccc(N4CCN(C)CC4)cc3)nc2n1-c1cccc(C(C)(C)O)n1 [AZD1775] (first compound max 1 µM, partner max 1 µM) | 0.0046 | 0.0065 | 0.468 | 0.728 | 0.703 | 0.681 | 0.722 | 0.707 | 0.918 | 1 | 0.854 | 0.671 | 1 | 0.933 | 0.621 | 0.99 | 0.907 | 1 | 1 | 0.381
5 | C=CCn1c(=O)c2cnc(Nc3ccc(N4CCN(C)CC4)cc3)nc2n1-c1cccc(C(C)(C)O)n1 [AZD1775] + O=C(c1cc(Cc2n[nH]c(=O)c3ccccc23)ccc1F)N1CCN(C(=O)C2CC2)CC1 [Olaparib] (first compound max 1 µM, partner max 10 µM) | -0.0254 | -0.0517 | 0.339 | 0.29 | 0.528 | 0.73 | 0.622 | 0.268 | 0.328 | 1 | 0.832 | 0.536 | 0.953 | 0.559 | 0.496 | 0.887 | 0.365 | 0.977 | 0.705 | 0.249
6 | CC1(C)CCC(CN2CCN(c3ccc(C(=O)NS(=O)(=O)c4ccc(NCC5CCOCC5)c([N+](=O)[O-])c4)c(Oc4cnc5[nH]ccc5c4)c3)CC2)=C(c2ccc(Cl)cc2)C1 [Venetoclax] + C1CN(CCC1(C(=O)N[C@@H](CCO)C2=CC=C(C=C2)Cl)N)C3=NC=NC4=C3C=CN4 [Capivasertib] (first compound max 1 µM, 7x7, partner max 3 µM) | 0.0046 | -0.0389 | 0.653 | 0.207 | 0.163 | 0.176 | 0.14 | 0.391 | 0.115 | 1 | 0.648 | 0.198 | 0.958 | 0.366 | 0.462 | 0.328 | 0.242 | 0.292 | 1 | 0.392
7 | Cc1c2c(nn1C)CSCc1cc(n(C)n1)CSc1cc(c3ccccc3c1)OCCCc1c(C(=O)O)n(C)c3c-2c(Cl)ccc13 [AZD5991] + CC1(C)CCC(CN2CCN(c3ccc(C(=O)NS(=O)(=O)c4ccc(NCC5CCOCC5)c([N+](=O)[O-])c4)c(Oc4cnc5[nH]ccc5c4)c3)CC2)=C(c2ccc(Cl)cc2)C1 [Venetoclax] (first compound max 1 µM, 7x7, partner max 1 µM) | -0.0033 | -0.0082 | 0.835 | 0.12 | 0.968 | 0.145 | 0.241 | 0.466 | 0.963 | 1 | 0.212 | 0.23 | 1 | 0.246 | 0.198 | 0.245 | 0.421 | 0.438 | 1 | 0.174
